Measured values taken from patent US9062030B2, “Pyrazole azetidine derivatives as sphingosine 1-phosphate (S1P) receptor modulators” (Allergan, Inc., priority 2013, dated 2015).

Target: T1, human S1P1 receptor (Homo sapiens, UniProt P21453)
T1 construct: expressed in transfected cells; membranes used
Assay: GTP γ35S binding assay for S1P1 activity
Format: biochemical
Details: membranes of cells stably expressing the S1P1 receptor, agonist activity potency
Experimental: Compounds were synthesized and tested for S1P1 activity using the GTP γ^35S binding assay. These compounds may be assessed for their ability to activate or block activation of the human S1P1 receptor in cells stably expressing the S1P1 receptor.
GTP γ^35S binding was measured in the medium containing (mM) HEPES 25, pH 7.4, MgCl2 10, NaCl 100, dithiothreitol 0.5, digitonin 0.003%, 0.2 nM GTP γ^35S, and 5 μg membrane protein in a volume of 150 μl. Test compounds were included in the concentration range from 0.08 to 5,000 nM unless indicated otherwise. Membranes were incubated with 100 μM 5′-adenylylimidodiphosphate for 30 min, and subsequently with 10 μM GDP for 10 min on ice. Drug solutions and membrane were mixed, and then reactions were initiated by adding GTP γ^35S and continued for 30 min at 25° C. Reaction mixtures were filtered over Whatman GF/B filters under vacuum, and washed three times with 3 mL of ice-cold buffer (HEPES 25, pH 7.4, MgCl2 10 and NaCl 100). Filters were dried and mixed with scintillant, and counted for ^35S activity using a β-counter. Agonist-induced GTP γ^35S binding was obtained by subtracting that in the absence of agonist. Binding data were analyzed using a non-linear regression method. In case of antagonist assay, the reaction mixture contained 10 nM S1P in the presence of test antagonist at concentrations ranging from 0.08 to 5000 nM.

T1 sequence (P21453 whole entry): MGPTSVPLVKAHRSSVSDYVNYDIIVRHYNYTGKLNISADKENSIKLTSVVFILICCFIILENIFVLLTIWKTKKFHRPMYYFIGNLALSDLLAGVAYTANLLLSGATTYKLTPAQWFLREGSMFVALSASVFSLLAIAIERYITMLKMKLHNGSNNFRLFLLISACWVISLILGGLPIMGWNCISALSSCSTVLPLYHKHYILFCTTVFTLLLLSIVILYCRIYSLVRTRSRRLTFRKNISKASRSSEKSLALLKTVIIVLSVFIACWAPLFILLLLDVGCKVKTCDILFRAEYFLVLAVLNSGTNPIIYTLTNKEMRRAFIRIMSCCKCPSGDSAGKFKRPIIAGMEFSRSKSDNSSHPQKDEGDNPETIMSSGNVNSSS

EC50: 450 nM
Compound: Cc1nn(C(=O)CCc2ccc(CN3CC(C(=O)O)C3)cc2)c2c1C1C(C2)C1(C)C (stereo not shown) [Compound 1, 1-{4-[3-oxo-3-(3,4,4-trimethyl-3b,4,4a,5-tetrahydro-1H-cyclopropa [3,4]cyclopenta[1,2-c]pyrazol-1-yl)propyl]benzyl}azetidine-3-carboxylic acid]
